In paper PMC4320596, “Cytotoxicity effect of degraded and undegraded kappa and iota carrageenan in human intestine and liver cell lines” (BMC Complementary and Alternative Medicine, 2014):
Entries after “also recorded” stand apart in the source; their conditions may differ.

What was measured:
Type in all cases: cell-based, human
[1] = test system: FHs 74 Int cells; assay: Morphological observation under an inverted microscope, FHs 74 Int; settings: 72 h; degraded and TAM at 72 h IC50, undegraded at highest concentration
Method: (§1) Approximately 2×10^5 cells were seeded in 2 mL of culture medium in 6-well plates (BD Labware, England) and incubated with 5% CO2 at 37°C for 24 h. The cells were then treated with degraded FGKC, DKC and CGKC at the appropriate concentrations to produce 50% cell viability at 72 hours as pre-determined by the MTT assay. For undegraded carrageenan, the highest concentration with longest treatment period (72 hours) was used to test on the cells. […] The morphology of the treated cells was observed under an inverted microscope at 200× magnification. The observed morphology was compared to the morphology of untreated cells.

[2] = test system: HepG2 cells; assay: Morphological observation under an inverted microscope, HepG2; settings: 72 h; degraded and TAM at 72 h IC50, undegraded at highest concentration
Method: as §1

[3] = test system: Fa2N-4 cells; assay: Morphological observation under an inverted microscope, Fa2N-4; settings: 72 h; degraded and TAM at 72 h IC50, undegraded at highest concentration
Method: as §1

[4] = test system: HepG2 cells; assay: Acridine orange-ethidium bromide (AO/EtBr) staining, HepG2; settings: 72 h; degraded k-carrageenan
Method: After the cells were harvested by trypsinisation, they were washed with PBS. A 25 μL sample of cells was stained with 10 μL of a mixture (1:1) of acridine orange and ethidium bromide solution. The concentration of AO/EtBr are […] in 1× PBS. After staining, the cells were viewed under a fluorescence microscope at 200× magnification (Leica DM 2500).

[5] = test system: HepG2 cells; assay: DNA fragmentation by agarose gel electrophoresis, HepG2; settings: 1% agarose gel
Method: Caco-2 and HepG2 cells treated with degraded FGKC, DKC and CGKC were lysed with lysis buffer (10 mM Tris–HCl, 5 mM EDTA, […], 0.2% SDS) and incubated at 60°C for 5 min. The RNA in each sample was digested with 10 μL of RNase at 37°C for 1 hour, and proteinase K (more than 3 U uL^−1) was added before incubating at 50°C for an additional 1.5 h. NaCl (5 M) was then added, and the samples were incubated on ice for 5 min to precipitate the protein. The cells were centrifuged for 15 min at highest speed at 4°C, after which supernatant was collected, and an equal volume of isopropanol was added to precipitate the DNA. Then, each sample was centrifuged again at 10,000 g for 10 min at 4°C. Supernatants were discarded, and the pellets were washed with 70% cold ethanol. The DNA sample was left to dry at room temperature before adding 1× TE buffer. Electrophoresis was carried out in a 1.0% (w/v) agarose gel for 1.5 h at 70 V. The gel was examined under UV transillumination following ethidium bromide staining to determine the extent of apoptotic DNA fragmentation.

[6] = test system: PCNA, MKI67 and survivin gene expression in HepG2 cells; assay: RT-PCR gene expression analysis, HepG2; settings: 72 h, degraded and tamoxifen at IC50, undegraded at 2000 μg mL^−1
Method: Reverse transcription polymerase chain reaction (RT-PCR) was used to analyze the presence of transcribed mRNA for cell proliferation gene marker. […] The extracted RNA was dissolved in DEPC-treated water. The RNA concentration and sample purity was determined using spectrophotometer (Bio Photometer plus, Eppendorf). Two steps RT-PCR were conducted where 1 μg of total RNA was used in the first strand cDNA synthesis using RevertAid First Strand cDNA Synthesis Kit (ThermoScientific, USA). Subsequent PCR reaction was done utilizing Mastercyler Gradient (Eppendorf, Germany). The expression of cell proliferation markers, e.g. PCNA, MKI67 and BIRC5 or known as survivin were analyzed with GAPDH gene acting as the endogenous control. […] PCR amplification were under the following conditions: initial denaturation at 95°C for 2 min, denaturation at 95°C for 1 min, primer annealing as stated in Table 1, extension at 72°C for 45 second, and final extension at 72°C for 5 min. […] The separated DNA fragments were visualized by ethidium bromide staining and photographed using the Alpha Imaging System (Alpha Innotech, San Leandro, CA, USA) under UV transillumination.

## CC/C(=C(\c1ccccc1)c1ccc(OCCN(C)C)cc1)c1ccccc1 [TAM, Tamoxifen]
[1]
  Cell morphology before staining, FHs 74 Int: cell shrinkage
[2]
  Cell morphology before staining, HepG2: cell shrinkage
[3]
  Cell morphology before staining, Fa2N-4: cell shrinkage
[4]
  Mode of cell death by AO/EtBr staining, HepG2: showed apoptosis
[5]
  DNA fragmentation (DNA ladder), HepG2: fragmented
[6]
  MKI67 gene expression, HepG2: lower than control; also recorded: undetectably low
  PCNA gene expression, HepG2: lower than control
  survivin gene expression, HepG2: lower than control; also recorded: not expressed
